The results in this text go back to the METLIN SMRT retention time set (Domingo-Almenara et al. 2019).

This series in a line: gradient 5% acetonitrile 3 min, to 50% in 2 min, to 85% in 15 min, held 3 min, 100 µL/min. Conditions: column: Zorbax Extend-C18 2.1 x 50 mm; eluents: water / acetonitrile, 0.1% formic acid. A digest of the protocol:
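Over 3 months, pure standards in mixtures of ~100 molecules were run by HPLC coupled to a quadrupole time-of-flight mass spectrometer in positive and negative ionization mode. The column was a Zorbax Extend-C18 (2.1 × 50 mm, 1.8 μm) at 100 μL/min, eluted with water and acetonitrile each holding 0.1% formic acid, with 40 μL dead and 900 μL dwell volumes. Retention time was determined from adduct peaks chosen by software and checked manually.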
`CCS(=O)(=O)N1CC(=O)N(c2ccc(F)cc2C)C(C)(C(=O)NC2CCCCCCC2)C1` (centres undefined): the RP-LC retention time came out at 997 s.

Regarding `COc1ccc(-c2nc3ncccn3c2NCc2ccc(C)cc2)cc1`, the RP-LC retention time is 756 s.

`COc1ccc2c(c1)C1(CCN(S(=O)(=O)c3cccc(Cl)c3)C1)C(=O)N2C` (centres undefined) gave an RP-LC retention time of 978 s.

In turn, `O=C(NCCCN1CCN(c2ccccc2)CC1)c1ccc(F)cc1F` returned an RP-LC retention time of 590 s.

For `CCOC(=O)CNC(=O)N1CCN(c2nc3ccccc3n2CC)CC1`, the RP-LC retention time was found to be 602 s.

Take `Cc1noc(COC2CCN(C(=O)Cc3c[nH]c4ccccc34)CC2)n1`: the RP-LC retention time stood at 724 s.

`CCCc1nc(-c2ccccc2)oc1CC(=O)Nc1ccc(Br)cc1F` returned an RP-LC retention time of 1150 s.

`O=C(Nc1nnc(-c2ccc(Cl)s2)o1)c1ccc(S(=O)(=O)N2CCCC2)cc1` showed an RP-LC retention time of 814 s.

On to `Cc1cccc(CN2N=C(C(=O)N3CCOCC3)S(=O)(=O)c3ccccc32)c1`, for which the RP-LC retention time worked out at 832 s.

`CCC(C)C(=O)NC1CCN(C2=NS(=O)(=O)C(c3ccccc3)=C2C)CC1` (centres undefined): the RP-LC retention time was 752 s.

`COc1ccc(CN2C=C(C(=O)OCc3cccc(OC)c3)C(C)=NS2(=O)=O)cc1`: the RP-LC retention time stood at 1100 s.

As for `Cc1nnc2ccc(NC3CC3)nn12`, the RP-LC retention time came out at 628 s.

For the compound `CCOC(=O)c1[nH]c(C)c(C(=O)N2CCC(CC(=O)NC(C)CC)CC2)c1C` (centres undefined), the RP-LC retention time came to 670 s.

Regarding `Cc1nc(-c2csc(S(=O)(=O)N3CCCC(C(=O)NCc4ccc(F)cc4)C3)c2)no1` (centres undefined), the RP-LC retention time amounted to 892 s.

For the compound `COc1ccc2[nH]cc(C(=O)O)c(=O)c2c1`, the RP-LC retention time was 605 s.

Turning to `Cc1ccc(C2=NC3(CCN(C(=O)c4n[nH]c5c4CCCC5)CC3)ON2)cc1`, the RP-LC retention time worked out at 736 s.

As for `c1cc(-c2nc(-c3ccnc(N4CCOCC4)c3)no2)ccn1`, the RP-LC retention time amounted to 718 s.

The compound `CCc1cccc(NC(=O)Cn2c(=O)c3cc(C)nn3c3ncccc32)c1` came in with an RP-LC retention time of 767 s.

Compound `O=C(Cc1c[nH]c2ncccc12)NCc1ccc(Br)cc1` came in with an RP-LC retention time of 666 s.

Compound `Cc1ccccc1NC(=O)NCC1CCOCC1` displayed an RP-LC retention time of 658 s.

Regarding `CCN(CC)CCNC(=O)c1c(-c2ccccc2)c(-c2ccccc2)nn(C)c1=O`, the RP-LC retention time amounted to 646 s.

As for `c1ccc(Cc2nn3c(CSc4ccccc4)nnc3s2)cc1`, the RP-LC retention time was 927 s.

`CN(C(=O)CC(=O)Nc1ccc2nc3n(c(=O)c2c1)CCCCC3)c1ccccc1F` had an RP-LC retention time of 682 s.

With `O=C(COc1ccc(F)cc1)N1CCC2(CC1)NC(=O)N(Cc1ccc(Cl)cc1)C2=O`, the RP-LC retention time stood at 810 s.

Compound `CCC(=O)N1CCc2sc(C(=O)NCc3ccccn3)cc2C1` had an RP-LC retention time of 577 s.

For `Cc1ccc(Cl)cc1NC(=O)C1CCCN(c2nnc(C)c3c(C)n(-c4ccccc4)nc23)C1` (centres undefined), the RP-LC retention time came to 802 s.

`CCCCNC(=O)CCc1[nH]c(C)c(C(=O)OCC)c1C` displayed an RP-LC retention time of 762 s.

Consider `Cc1nc(CC(=O)NCc2ccc(C(F)(F)F)cc2)sc1C(=O)NCc1ccccc1`, for which the RP-LC retention time amounted to 805 s.

Compound `N#Cc1ccc(-c2nc(-c3ccc4c(c3)nnn4CCC(=O)N3CCCC3)no2)c(F)c1` had an RP-LC retention time of 849 s.

`CCc1noc(-c2cnc3nc(C)ccc3c2NCc2ccc(OC)cc2OC)n1` had an RP-LC retention time of 752 s.

As to `CCc1ccc(C(=O)N2CCC3(C2)C(=O)N(C)c2ccccc23)cc1` (centres undefined), the RP-LC retention time was determined as 861 s.

For `COc1cn2c(cc1=O)C(=O)N(CCNC(=O)c1c(F)cccc1Cl)CC2`, the RP-LC retention time worked out at 660 s.

As to `O=C(NCc1cccc(F)c1)C1CCN(c2cnc3nccnc3c2)CC1`, the RP-LC retention time came to 680 s.

`COc1cc2c(cc1OC)C(COc1ccc(F)cc1)N(C(=O)C(C)(C)C)CC2` (centres undefined): the RP-LC retention time was 998 s.

Turning to `CCCCOc1ccc(S(=O)(=O)N2CCN(c3cc(C)nc(NC4CCCCC4)n3)CC2)cc1`, the RP-LC retention time is 996 s.

On to `Nc1cc(C2CCN(C(=O)Nc3ccc(F)c(Cl)c3)CC2)no1`, for which the RP-LC retention time amounted to 750 s.

For `Cc1ccc(-n2nc(C)c(S(=O)(=O)N3CCC(C(=O)N4CCN(C)CC4)CC3)c2C)cc1`, the RP-LC retention time is 629 s.

Compound `O=C(Nc1cnc(-c2ccccc2)nc1)C1CCC1` had an RP-LC retention time of 856 s.

`O=C1[C@H]2CN(Cc3ccc(F)cc3)C[C@H]2C(=O)N1CCc1ccccc1` yielded an RP-LC retention time of 748 s.

In the case of `CC(C)n1cc(S(=O)(=O)Nc2cc(F)cc(F)c2)c2cccnc21`, the RP-LC retention time amounted to 936 s.

`CC(C)NC(=O)N1CCCCCC1c1nc(C2CC2)no1` (centres undefined) returned an RP-LC retention time of 802 s.

`COc1cc(C)c(Sc2cnc(NC(=O)c3ccc(CNC(C)C(C)(C)C)cc3)s2)cc1C(=O)N1CCN(C(C)=O)CC1` (centres undefined) yielded an RP-LC retention time of 762 s.

`COc1cc(CNC(=O)C2=Cc3ccccc3OC2)cc(OC)c1OC` returned an RP-LC retention time of 835 s.

For the compound `CCn1c(C(=O)NCCCN2CCCCC2)c(N2CCCC2=O)c2cc(F)ccc21`, the RP-LC retention time was 647 s.

In the case of `Cc1cnc(C2CCC2)n1CCNC(=O)C1(c2ccccc2)CC1`, the RP-LC retention time is 654 s.

`O=S(=O)(Cc1c(F)cccc1Cl)N1CCC(CN2CCCCCC2)CC1` returned an RP-LC retention time of 695 s.

`O=C(Nc1ccc(F)cc1F)N1CCN(CCn2c(-c3ccncc3)nc3cccnc32)CC1`: the RP-LC retention time is 581 s.

Regarding `CN1C(=O)NC(c2ccccc2C(F)(F)F)C2=C1CN(CCC(=O)N1CCCC1)C2=O` (centres undefined), the RP-LC retention time is 598 s.

With `COc1ccc(CN(Cc2ccccc2)Cc2cc(=O)n3cc(Cl)ccc3n2)cc1OC`, the RP-LC retention time turned out to be 687 s.

In the case of `Cc1cc(C)c2c(n1)sc1c(N3CCC(C(=O)N4CCN(c5ccccn5)CC4)CC3)ncnc12`, the RP-LC retention time turned out to be 668 s.

On to `O=C(NCCc1cccnc1)C1CCc2nc(N3CCCC3)ncc2C1` (centres undefined), for which the RP-LC retention time was found to be 532 s.

For the compound `CCc1ccc(Nc2nc(C(=O)NC3CCCCC3)nc3ccccc23)cc1`, the RP-LC retention time turned out to be 995 s.

In turn, `Cc1cccc(C)c1NC(=O)Cn1cnc2nc3c(cc2c1=O)CC(C)CC3` (centres undefined) yielded an RP-LC retention time of 758 s.

Regarding `CCC(C)NC(=O)Cn1nc(Cc2ccncc2)c2ccccc2c1=O` (centres undefined), the RP-LC retention time was 572 s.

For the compound `Cc1cc(=O)oc2c3c(cc(OCC(=O)N[C@@H](C(=O)O)C(C)C)c12)OC(C)(C)CC3`, the RP-LC retention time turned out to be 833 s.

`CCN1c2ccc(F)cc2C(=O)NC12CCN(C(=O)c1ccc(F)c(F)c1)CC2` returned an RP-LC retention time of 822 s.

With `Cc1ccc(-n2nc3c(=O)n(C(C)C(=O)NCc4ccc5c(c4)OCO5)nc(C)c3c2C)cc1` (centres undefined), the RP-LC retention time worked out at 878 s.

For `Fc1cccc(-c2noc(Cc3nnc(-c4ccc(Cl)cc4)o3)n2)c1`, the RP-LC retention time came to 995 s.

`O=C(C1CCN(c2nc3ccc(-c4ccc(F)cc4)nc3s2)CC1)N1CCCCC1` had an RP-LC retention time of 1080 s.

Regarding `O=C(NCCCN1CCCCCC1)c1ccc2c(c1)NC(=O)C1CCCCN21` (centres undefined), the RP-LC retention time came out at 609 s.

In turn, `C=CCNC(=O)c1cn(-c2cc(-c3nc(C(C)(C)C)no3)ccn2)cn1` displayed an RP-LC retention time of 879 s.

For `O=C(NCCc1c[nH]c2ccc(Cl)cc12)c1cccc(Cn2c(=O)c3cccn3c3cccnc32)c1`, the RP-LC retention time was 981 s.

The compound `COc1cccc(NC(=O)Cn2nc3cc(C)nc(-c4ccccc4)n3c2=O)c1` returned an RP-LC retention time of 803 s.

In the case of `CN1C(=O)CC[C@]2(C(=O)NCc3cccc(C(F)(F)F)c3)CCCC[C@@H]12`, the RP-LC retention time is 744 s.

`COCCN(CCNC(=O)c1cc(-c2ccccn2)nc2ccccc12)Cc1ccco1` gave an RP-LC retention time of 660 s.

The compound `COc1ccccc1CNC(=O)c1cn(C)nc1S(=O)(=O)N1CCC(C)CC1` registered an RP-LC retention time of 951 s.

In the case of `O=C(C1=NN(Cc2cccc(F)c2)c2cc(Cl)ccc2S1(=O)=O)N1CCOCC1`, the RP-LC retention time was found to be 904 s.

Compound `CCC1(O)CCC12CCN(C(=O)CC1CCN(C(C)=O)CC1)CC2` (centres undefined) registered an RP-LC retention time of 629 s.

Regarding `CCOC(=O)c1ccc(Nc2c(-c3ccc(N4CCOCC4)cc3)nc3cnccn23)cc1`, the RP-LC retention time was determined as 795 s.

The compound `CC(C)n1cnc2ccc(-c3noc(-c4ccc(F)cc4)n3)cc21` gave an RP-LC retention time of 742 s.

`CC(C)N1CCN(C(=O)c2csc(C(=O)NC3CCCC3)n2)CC1` displayed an RP-LC retention time of 590 s.

Take `Cc1cc(C(=O)Nc2nnc(-c3cccs3)o2)c(C)o1`: the RP-LC retention time worked out at 706 s.

In turn, `Cn1cccc1C(=O)Nc1cnn(-c2ncc(N3CCSCC3)cn2)c1` showed an RP-LC retention time of 768 s.

Regarding `O=C(N[C@H]1C[C@@H]2C[C@H]1N(C(=O)c1ccccn1)C2)c1ccccc1`, the RP-LC retention time stood at 622 s.

As to `CCOC(=O)c1c(C)[nH]c(C(=O)N2CCC(CC(=O)NC3CCCC3)CC2)c1C`, the RP-LC retention time turned out to be 720 s.

`CCc1nnc(NC(=O)CSc2nnc(NC(=O)NC(C)(C)C)s2)s1` gave an RP-LC retention time of 672 s.

In turn, `CC1CCC(N2CC(=O)N(CCN3CCOCC3)C(c3cccnc3)C2=O)CC1` (centres undefined) had an RP-LC retention time of 548 s.

For the compound `CCc1nnc([C@@H]2CC(F)(F)CN2S(=O)(=O)c2ccc(C)cc2)o1`, the RP-LC retention time was determined as 696 s.

Compound `CC(C)CCNC(=O)c1ccc2c(c1)NC(=O)C1CCCCN21` (centres undefined) showed an RP-LC retention time of 813 s.
